The target of experiment [1] is T1, Cannabinoid receptor 1 (Rattus norvegicus, UniProt P20272). Nature of the experiment: Binding affinity to displace [3H]CP-55940 from CB1 receptor of rat brain.
Experiment [2] has as its target T2, Cannabinoid receptor 2 (Homo sapiens, UniProt P34972). Nature of the experiment: Binding affinity to displace [3H]CP-55940 from cloned human CB2 receptor.
Experiment [3] can be described thus: Ratio of the binding affinity towards CB1 receptor to that of CB2 receptor.
Experiment [4] addresses T2, Cannabinoid receptor 2. As to the kind of experiment: Effective concentration for stimulation of [35S]GTP-gamma-S, binding at CB2 receptor in presence of 3 uM CP-55940. The experiment is classed as functional.
The target in experiment [5] is T1, Cannabinoid receptor 1. Nature of the experiment: Effective concentration for stimulation of [35S]GTP-gamma-S binding at CB1 receptor in presence of 10 uM WIN-55212-2. The experiment is classed as functional. A general note: Binding of GTPγS marks nucleotide exchange on a G protein.
Experiment [6] has as its target T2, Cannabinoid receptor 2. As to the kind of experiment: Percent maximal effectiveness for stimulation of [35S]GTP-gamma-S, binding at CB2 receptor in presence of 3 uM CP-55940. The experiment is classed as functional.

T2 sequence (P34972 whole entry): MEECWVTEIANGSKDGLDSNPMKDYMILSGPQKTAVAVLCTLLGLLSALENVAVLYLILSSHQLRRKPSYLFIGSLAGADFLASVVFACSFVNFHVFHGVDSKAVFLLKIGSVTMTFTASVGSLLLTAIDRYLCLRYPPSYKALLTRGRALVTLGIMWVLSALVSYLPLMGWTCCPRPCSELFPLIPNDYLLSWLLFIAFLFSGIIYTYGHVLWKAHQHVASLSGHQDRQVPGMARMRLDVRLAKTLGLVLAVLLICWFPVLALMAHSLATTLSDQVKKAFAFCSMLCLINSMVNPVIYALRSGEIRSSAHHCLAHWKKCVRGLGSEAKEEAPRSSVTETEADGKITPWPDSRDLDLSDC
T1 sequence (P20272 whole entry): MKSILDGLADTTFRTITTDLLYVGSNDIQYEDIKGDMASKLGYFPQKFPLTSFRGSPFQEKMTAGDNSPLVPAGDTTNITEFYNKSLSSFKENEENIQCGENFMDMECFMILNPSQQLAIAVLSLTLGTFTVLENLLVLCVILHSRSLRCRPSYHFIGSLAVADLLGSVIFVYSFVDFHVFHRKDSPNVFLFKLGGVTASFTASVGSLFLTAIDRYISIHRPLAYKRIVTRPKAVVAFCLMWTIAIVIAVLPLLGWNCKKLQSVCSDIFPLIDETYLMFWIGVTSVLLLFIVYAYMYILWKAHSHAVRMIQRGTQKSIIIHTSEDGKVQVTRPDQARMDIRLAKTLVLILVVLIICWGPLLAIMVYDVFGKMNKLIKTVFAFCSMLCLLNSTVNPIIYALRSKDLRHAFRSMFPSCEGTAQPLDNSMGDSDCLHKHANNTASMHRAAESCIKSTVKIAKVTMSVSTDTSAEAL

What is called Ki is a measure of affinity in units of concentration, obtained from inhibition or displacement. Low readings indicate a stronger hold on the target, high ones a looser hold on the target. As for `CCCCCn1c(C)c(C(=O)Cc2cccc(Cl)c2)c2ccccc21`, the inhibitory constant (Ki) in experiment [1] was 117 nM; in experiment [2], 138 nM. Moreover, the Ratio in experiment [3] worked out at 0.85.
`CCCCCn1c(C)c(C(=O)Cc2ccccc2C)c2ccccc21`: the Ki amounted to 23 nM in experiment [1] and 19 nM in experiment [2]. In experiment [3], the Ratio is 1.2.
For `CCCCCn1c(C)c(C(=O)Cc2cccc(F)c2)c2ccccc21`, in that order: 430 nM, 182 nM and 2.4.
Turning to `CCCCCn1c(C)c(C(=O)Cc2ccccc2Cl)c2ccccc21`, the Ki is 13 nM in experiment [1] and 25 nM in experiment [2]. The Ratio in experiment [3] was found to be 0.52.
For `CCCCCn1c(C)c(C(=O)Cc2ccccc2F)c2ccccc21`, in that order: 39 nM, 76 nM and 0.51.
Take `CCCCCn1c(C)c(C(=O)Cc2ccc(F)cc2)c2ccccc21`: the values for the Ki in experiment [1] and in experiment [2] were 2860 nM and 781 nM, respectively. In addition, the Ratio in experiment [3] was 3.7.
Turning to `CCCCCn1c(C)c(C(=O)Cc2ccc(C)cc2)c2ccccc21`, the Ki in experiment [1] amounted to 746 nM; in experiment [2] it was 1350 nM. Also, in experiment [3], the Ratio amounted to 0.55.
For `CCCCCn1c(C)c(C(=O)Cc2ccccc2Br)c2ccccc21`, in that order: 15 nM, 29 nM and 0.52.
A word on the EC50: it is the midpoint of the concentration-response curve. The term Emax denotes the maximal effect, on the per cent scale that the assay sets. Consider `CCCCCn1cc(C(=O)Cc2ccccc2C)c2ccccc21`, for which the Ki in experiment [1] came out at 29 nM; in experiment [2], 146 nM. In addition, the Ratio in experiment [3] was determined as 0.2. Also, the results for the half-maximal effective concentration (EC50) in experiment [4] and in experiment [5] were 8.3 nM and 29 nM, respectively. For the same molecule, the Emax in experiment [6] is 47%.
For `CCCCCn1cc(C(=O)Cc2ccc(F)cc2)c2ccccc21`, the Ki in experiment [1] is 422 nM; in experiment [2] it was 365 nM. Also, the Ratio in experiment [3] came to 1.2.
For `CCCCCn1c(C)c(C(=O)Cc2ccccc2)c2ccccc21`, in that order: 124 nM, 180 nM and 0.69.
With `CCCCCn1c(C)c(C(=O)Cc2ccc(Cl)cc2)c2ccccc21`, the inhibitory constant (Ki) in experiment [1] came to 1600 nM; in experiment [2], 3720 nM. Besides, in experiment [3], the Ratio is 0.43.
The matching figures for `CCCCCn1cc(C(=O)Cc2ccc(Cl)cc2)c2ccccc21`: 389 nM, 498 nM and 0.78.
For `CCCCCn1c(C)c(C(=O)Cc2ccc(OC)cc2)c2ccccc21`, in that order: 1680 nM, 645 nM and 2.6.
For `CCCCCn1cc(C(=O)Cc2cccc(F)c2)c2ccccc21`, in that order: 72 nM, 91 nM and 0.79.
For `CCCCCn1cc(C(=O)Cc2ccccc2OC)c2ccccc21`, the Ki in experiment [1] amounted to 11 nM; in experiment [2], 33 nM. In addition, the Ratio in experiment [3] came to 0.33.
Regarding `CCCCCn1c(C)c(C(=O)Cc2ccccc2OC)c2ccccc21`, the figures for the inhibitory constant (Ki) in experiment [1] and in experiment [2] were 25 nM and 82 nM, respectively. Further, the Ratio in experiment [3] was found to be 0.3.
For `CCCCCn1cc(C(=O)Cc2ccc(OC)cc2)c2ccccc21`, in that order: 1060 nM, 444 nM and 2.4.
The molecule `CCCCCn1cc(C(=O)Cc2ccc(Br)cc2)c2ccccc21` had a Ki in experiment [2] of 657 nM. Moreover, in experiment [3], the Ratio worked out at 1.6.
In the case of `CCCCCn1cc(C(=O)Cc2ccccc2)c2ccccc21`, the figures for the Ki in experiment [1] and in experiment [2] were 90 nM and 159 nM, respectively. In experiment [3], the Ratio turned out to be 0.57.
The matching figures for `CCCCCn1cc(C(=O)Cc2ccc(C)cc2)c2ccccc21`: 179 nM, 570 nM and 0.31.
The matching figures for `CCCCCn1c(C)c(C(=O)Cc2cccc(OC)c2)c2ccccc21`: 62 nM, 84 nM and 0.74.
As to `CCCCCn1cc(C(=O)Cc2cccc(OC)c2)c2ccccc21`, the Ki came to 17 nM in experiment [1] and 89 nM in experiment [2]. The Ratio in experiment [3] came to 0.19. Besides, the figures for the EC50 in experiment [4] and in experiment [5] were 24.4 nM and 29.3 nM, respectively. Besides, the Emax in experiment [6] came out at 33.5%.
On to `CCCCCn1cc(C(=O)Cc2ccccc2Br)c2ccccc21`, for which the Ki in experiment [1] turned out to be 8.4 nM; in experiment [2], 20 nM. For the same molecule, the Ratio in experiment [3] amounted to 0.42.
For `CCCCCn1cc(C(=O)Cc2cccc(Cl)c2)c2ccccc21`, in that order: 38 nM, 106 nM and 0.36.
Take `CCCCCn1cc(C(=O)Cc2ccccc2Cl)c2ccccc21`: the inhibition constant (Ki) in experiment [1] is 8 nM; in experiment [2], 7 nM. In addition, the Ratio in experiment [3] was 1.1.
Consider `CCCCCn1cc(C(=O)Cc2ccccc2F)c2ccccc21`, for which the Ki came out at 23 nM in experiment [1] and 39 nM in experiment [2]. Besides, the Ratio in experiment [3] is 0.6.
Molecule `CCCCCn1c(C)c(C(=O)Cc2ccc(Br)cc2)c2ccccc21` registered a Ki in experiment [2] of 2680 nM. Besides, the Ratio in experiment [3] is 1.2.

Values taken from ChEMBL document CHEMBL1140358, “1-Pentyl-3-phenylacetylindoles, a new class of cannabimimetic indoles” (Bioorg Med Chem Lett, 2005).
